Data published in the NIST ThermoML archive (doi:10.1016/j.jct.2019.01.018).
Numbers after ± are expanded uncertainties.

Assay: xn = mol fraction of the nth substance listed
Conditions: 298.15 K, 101.1 kPa, Liquid; for viscosity: Falling or rolling sphere viscometry; for mass density: Vibrating tube method

Row | viscosity (x1 = 0.333) [mPa·s] | mass density (x1 = 0.333) [kg/m3] | viscosity (x2 = 0.333) [mPa·s] | mass density (x2 = 0.333) [kg/m3] | Structure (SMILES)
1 | 317.14 ± 69 | 1191.3 ± 16 |  |  | C[N+](C)(C)CCO.[Cl-] [choline chloride] + OCC(O)CO
2 | 39.45 ± 8.3 | 1120.4 ± 15 |  |  | C[N+](C)(C)CCO.[Cl-] [choline chloride] + OCCO
3 |  |  | 1348.3 ± 320 | 1210.4 ± 16 | NC(N)=O [urea] + C[N+](C)(C)CCO.[Cl-]
